Entries after “also recorded” stand apart in the source; their conditions may differ. Where two headings read alike, the source gives them in different places.
Target: neuraminidase from Clostridium perfringens (Clostridium perfringens, UniProt A0A0H2YQR1)
Type: biochemical
Conditions: for Type of Inhibition: Lineweaver-Burk plot

Chain of neuraminidase from Clostridium perfringens (A0A0H2YQR1 42-694 limits assumed): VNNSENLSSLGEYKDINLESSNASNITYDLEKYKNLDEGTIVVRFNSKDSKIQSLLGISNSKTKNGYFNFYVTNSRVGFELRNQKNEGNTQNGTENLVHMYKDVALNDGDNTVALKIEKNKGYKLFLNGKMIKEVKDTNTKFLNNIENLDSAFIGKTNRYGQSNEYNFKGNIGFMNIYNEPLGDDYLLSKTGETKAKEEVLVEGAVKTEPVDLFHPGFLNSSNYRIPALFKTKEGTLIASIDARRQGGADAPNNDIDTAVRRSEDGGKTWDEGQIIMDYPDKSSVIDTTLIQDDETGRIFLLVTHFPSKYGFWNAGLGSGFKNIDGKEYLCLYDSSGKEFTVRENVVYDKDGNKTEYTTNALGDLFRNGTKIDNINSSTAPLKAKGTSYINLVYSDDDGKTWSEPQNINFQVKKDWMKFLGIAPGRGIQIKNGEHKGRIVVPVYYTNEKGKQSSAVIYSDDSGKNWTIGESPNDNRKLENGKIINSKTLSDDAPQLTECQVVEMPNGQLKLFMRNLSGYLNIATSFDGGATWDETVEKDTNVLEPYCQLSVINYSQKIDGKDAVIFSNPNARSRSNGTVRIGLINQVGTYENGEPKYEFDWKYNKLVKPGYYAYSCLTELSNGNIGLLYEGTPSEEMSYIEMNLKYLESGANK

SMILES	Type of Inhibition	Type of Inhibition (listed as Bakkenolide D (2))	Type of Inhibition (listed as 1,5-di-O-caffeoylquinic acid (3, 1,5-COQ))	reversibility of inhibition (remaining enzyme activity versus enzyme concentration at different inhibitor concentrations (Figure 2b))	Type of Inhibition (listed as 5-O-Caffeoylquinic acid (4, 5-COQ))
C=C1COC(=O)[C@]12C[C@@]1(C)C([C@@H](OC(=O)/C=C\SC)CC[C@@H]1C)[C@H]2OC(C)=O (stereo partly shown) [compound 2, Bakkenolide D]	non-competitive inhibition	non-competitive inhibitor; also recorded: Noncompetitive	–	–	–
O=C(/C=C/c1ccc(O)c(O)c1)O[C@@H]1C[C@](OC(=O)/C=C/c2ccc(O)c(O)c2)(C(=O)O)C[C@@H](O)[C@H]1O [compound 3, 1,5-di-O-Caffeoylquinic Acid]	competitive inhibitor	–	Competitive	reversible inhibitor	–
O=C(/C=C/c1ccc(O)c(O)c1)O[C@@H]1C[C@](O)(C(=O)O)C[C@@H](O)[C@H]1O [compound 4, 5-O-Caffeoylquinic Acid]	competitive inhibitor	–	–	–	Competitive

Reference: paper PMC7357027 (Biomolecules, 2020)
